Eleven molecules from patent publication US20250296959A1, “B7-H3 TARGETING PEPTIDES AND CONSTRUCTS THEREOF” (Mariana Oncology Inc., priority 2024, published 2025) can be followed below.

Starred links: 1 amine or outer side, 2 acyl side, 3 side chain; linkers in the order of their positions; H or OH if unused. Positions of bridges follow the written chain, without caps; N, C: chain ends. Non-standard residues stand in square brackets, D forms with d. Residues, ends and D or L forms follow the SMILES beside them. Groups on a side chain read outwards from the residue. *: point of attachment. Ala(piperidin-4-yl) = O=C([C@H](CC1CCN([*:3])CC1)N[*:1])[*:2]; DOTA = O=C(O)CN1CCN(CC(=O)O)CCN(CC(=O)*)CCN(CC(=O)O)CC1; Trp(5-F) = N[C@@H](Cc1c[nH]c2ccc(F)cc12)C(=O)O; X1 = C[C@@H](c1ccccc1)[C@H](N[*:1])C(=O)[*:2]; Trp(1-Me) = Cn1cc(C[C@H](N)C(=O)O)c2ccccc21; γGlu = O=C(O)[C@H](CCC(=O)[*:2])N[*:1]; 1Nal = N[C@@H](Cc1cccc2ccccc12)C(=O)O; Ala(4-THP) = N[C@@H](CC1CCOCC1)C(=O)O; Phe(2-OH) = N[C@@H](Cc1ccccc1O)C(=O)O; Val(3-OH) = CC(C)(O)[C@H](N)C(=O)O; cisHyp = O=C(O)[C@@H]1C[C@H](O)CN1; αMeF = C[C@](N)(Cc1ccccc1)C(=O)O; 4Pal = N[C@@H](Cc1ccncc1)C(=O)O; PEG4 = NCCOCCOCCOCCOCCC(=O)O; Tle = CC(C)(C)[C@H](N)C(=O)O; hLeu = CC(C)CC[C@H](N)C(=O)O; NMeS = CN[C@@H](CO)C(=O)O; Nle = CCCC[C@H](N)C(=O)O; Abu = CC[C@H](N)C(=O)O; CH2 = C([*:1])[*:2]; AEA = NCCOCC(=O)O; βAla = NCCC(=O)O

The assay has as its target T1, human 4lg B7-H3 (Homo sapiens, UniProt Q5ZPR3).
T1 sequence (Q5ZPR3 29-534): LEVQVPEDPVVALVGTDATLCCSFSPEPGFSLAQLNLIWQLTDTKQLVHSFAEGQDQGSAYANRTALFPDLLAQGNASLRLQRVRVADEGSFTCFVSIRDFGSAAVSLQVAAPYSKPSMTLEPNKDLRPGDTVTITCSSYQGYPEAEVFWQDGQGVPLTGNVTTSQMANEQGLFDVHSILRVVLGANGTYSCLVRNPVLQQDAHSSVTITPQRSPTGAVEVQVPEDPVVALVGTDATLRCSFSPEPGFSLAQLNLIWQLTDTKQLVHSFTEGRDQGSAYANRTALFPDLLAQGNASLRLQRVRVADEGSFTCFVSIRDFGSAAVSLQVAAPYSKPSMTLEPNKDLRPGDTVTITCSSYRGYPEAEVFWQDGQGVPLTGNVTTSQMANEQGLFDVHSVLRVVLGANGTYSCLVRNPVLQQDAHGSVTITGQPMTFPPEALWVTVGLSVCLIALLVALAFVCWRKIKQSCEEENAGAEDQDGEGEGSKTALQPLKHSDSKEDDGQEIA
Kind of assay: Affinity determination by surface plasmon resonance (SPR) to 4Ig B7-H3. As to conditions: 4Ig B7-H3.

Where [1] appears, read: SPR KD—25° C., 25° C. flow cell temperature.
Where [2] appears, read: SPR KD—37° C., 37° C. flow cell temperature.

As to `CC(=O)N[C@@H](CCC(C)C)C(=O)N[C@@H](Cc1ccc(O)cc1)C(=O)N[C@H]1CSCSC[C@@H](C(=O)N[C@@H](Cc2cccc3ccccc23)C(=O)N[C@@H](Cc2ccccc2)C(=O)N(C)[C@@H](CO)C(=O)N[C@H](CCCCNC(=O)CN2CCN(CC(=O)O)CCN(CC(=O)O)CCN(CC(=O)O)CC2)C(N)=O)NC(=O)[C@H](Cc2ccc(O)cc2)NC(=O)[C@H](C(C)C)NC(=O)[C@H](CC(=O)O)NC(=O)[C@H](Cc2ccncc2)NC(=O)[C@H](CCCCN)NC(=O)CNC(=O)[C@H](C(C)(C)C)NC1=O` [compound 297, Ac-hLeu-Y-C(CH2)-Tbg-G-K-4PyA-D-V-Y-C-1Nal-F-NMeSer-dLys(DOTA)-CONH2] (Ac-[hLeu]YC[Tle]GK[4Pal]DVYC[1Nal]F[NMeS][dK](DOTA)-NH2; linker 3-11 via CH2), the equilibrium dissociation constant (Kd) under setting [1] is 0.1 to 0.3 µM.

With `CC(=O)N[C@@H](CCC(C)C)C(=O)N[C@@H](Cc1ccc(O)cc1)C(=O)N[C@H]1CSSC[C@@H](C(=O)N[C@@H](Cc2c[nH]c3ccc(F)cc23)C(=O)N[C@H](C(=O)N[C@H](C(=O)NCCC(=O)O)C(C)(C)O)[C@@H](C)c2ccccc2)NC(=O)[C@H](Cc2ccc(O)cc2)NC(=O)[C@H](C(C)C)NC(=O)[C@H](CC(=O)O)NC(=O)[C@H](CC2CCN(C(=O)CCOCCOCCOCCOCCNC(=O)CN3CCN(CC(=O)O)CCN(CC(=O)O)CCN(CC(=O)O)CC3)CC2)NC(=O)[C@H](CC2CCNCC2)NC(=O)CNC(=O)[C@H](C(C)(C)C)NC1=O` [compound 511, Ac-hLeu-Y-C-Tbg-G-PipAla-Pip(PEG4-DOTA)Ala-D-V-Y-C-5FW-[(2S, 3S)beta-Me-Phe]-hydroxyVal-betaAla-COOH] (Ac-[hLeu]YC[Tle]G[Ala(piperidin-4-yl)][Ala(piperidin-4-yl)]([PEG4-DOTA])DVYC[Trp(5-F)][X1][Val(3-OH)][βAla]-OH; disulfide 3-11), the Kd under setting [2] was < 0.001 µM.

The molecule `CC(=O)N[C@@H](CCC(C)C)C(=O)N[C@@H](Cc1ccc(O)cc1)C(=O)N[C@H]1CSSC[C@@H](C(=O)N[C@@H](Cc2cccc3ccccc23)C(=O)N[C@@H](Cc2ccccc2)C(=O)N2C[C@@H](O)C[C@H]2C(N)=O)NC(=O)[C@H](Cc2ccc(O)cc2)NC(=O)[C@H](C(C)C)NC(=O)[C@H](CC(=O)O)NC(=O)[C@H](Cc2ccncc2)NC(=O)[C@H](CCCCNC(=O)CN2CCN(CC(=O)O)CCN(CC(=O)O)CCN(CC(=O)O)CC2)NC(=O)CNC(=O)[C@H](C(C)(C)C)NC1=O` [compound 250, Ac-hLeu-Y-C-Tbg-G-Lys(DOTA)-4PyA-D-V-Y-C-1Nal-F-(cisHyp)-CONH2] (Ac-[hLeu]YC[Tle]GK(DOTA)[4Pal]DVYC[1Nal]F[cisHyp]-NH2; disulfide 3-11) registered a Kd under setting [1] of 0.01 to 0.1 µM.

Consider `CCCC[C@H](NC(C)=O)C(=O)N[C@@H](Cc1ccc(O)cc1)C(=O)N[C@H]1CSSC[C@@H](C(=O)N[C@@H](Cc2c[nH]c3ccccc23)C(=O)N[C@@H](Cc2ccccc2)C(=O)N[C@@H](CCC(=O)O)C(N)=O)NC(=O)[C@H](Cc2ccc(O)cc2)NC(=O)[C@H](C(C)C)NC(=O)[C@H](CC(=O)O)NC(=O)[C@H](Cc2ccc(O)cc2)NC(=O)[C@H](CCCCN)NC(=O)CNC(=O)[C@H](C(C)C)NC1=O` [compound 34, Ac-Nle-Y-C-V-G-K-Y-D-V-Y-C-W-F-E-CONH2] (Ac-[Nle]YCVGKYDVYCWFE-NH2; disulfide 3-11), for which the Kd lay within 0.001 to 0.01 µM under setting [1] and 0.01 to 0.1 µM under setting [2].

For `CC(=O)N[C@@H](CCC(C)C)C(=O)N[C@@H](Cc1ccc(O)cc1)C(=O)N[C@H]1CSSC[C@@H](C(=O)N[C@@H](Cc2cn(C)c3ccccc23)C(=O)N[C@@H](Cc2ccccc2)C(=O)N[C@H](C(=O)N[C@H](CCCCNC(=O)CN2CCN(CC(=O)O)CCN(CC(=O)O)CCN(CC(=O)O)CC2)C(N)=O)[C@@H](C)O)NC(=O)[C@H](Cc2ccc(O)cc2)NC(=O)[C@H](C(C)C)NC(=O)[C@H](CC(=O)O)NC(=O)[C@H](Cc2ccc(O)cc2)NC(=O)[C@H](CCCCN)NC(=O)CNC(=O)[C@H](C(C)C)NC1=O` [compound 150, Ac-hLeu-Y-C-V-G-K-Y-D-V-Y-C-Trp(Me)-F-Thr-dLys(DOTA)-CONH2] (Ac-[hLeu]YCVGKYDVYC[Trp(1-Me)]FT[dK](DOTA)-NH2; disulfide 3-11), under setting [1], the Kd was < 0.001 µM.

As to `CC(=O)N[C@@H](CCC(C)C)C(=O)N[C@@H](Cc1ccc(O)cc1)C(=O)N[C@H]1CSSC[C@@H](C(=O)N[C@@H](Cc2c[nH]c3ccc(F)cc23)C(=O)N[C@@H](Cc2ccccc2)C(=O)N[C@H](C(=O)N[C@H](CCCCNC(=O)CN2CCN(CC(=O)O)CCN(CC(=O)O)CCN(CC(=O)O)CC2)C(N)=O)[C@@H](C)O)NC(=O)[C@H](Cc2ccc(O)cc2)NC(=O)[C@H](C(C)C)NC(=O)[C@H](CC(=O)O)NC(=O)[C@H]([C@@H](C)O)NC(=O)[C@H](CCCCN)NC(=O)CNC(=O)[C@H](C(C)C)NC1=O` [compound 198, Ac-hLeu-Y-C-V-G-K-T-D-V-Y-C-5FW-F-Thr-dLys(DOTA)-CONH2] (Ac-[hLeu]YCVGKTDVYC[Trp(5-F)]FT[dK](DOTA)-NH2; disulfide 3-11), the dissociation constant (Kd) under setting [1] fell in the range of 0.001 to 0.01 µM.

The molecule `CC(=O)N[C@@H](CCC(C)C)C(=O)N[C@@H](Cc1ccc(O)cc1)C(=O)N[C@H]1CSSC[C@@H](C(=O)N[C@@H](Cc2c[nH]c3ccc(F)cc23)C(=O)N[C@@H](Cc2ccccc2)C(=O)N[C@H](C(=O)N[C@H](CCCCNC(=O)CN2CCN(CC(=O)O)CCN(CC(=O)O)CCN(CC(=O)O)CC2)C(=O)O)C(C)(C)O)NC(=O)[C@H](Cc2ccccc2O)NC(=O)[C@H](C(C)C)NC(=O)[C@H](CC(=O)O)NC(=O)[C@H](CC2CCOCC2)NC(=O)[C@H](CC2CCNCC2)NC(=O)CNC(=O)[C@H](C(C)(C)C)NC1=O` [compound 467, Ac-hLeu-Y-C-Tbg-G-PipAla-ThpA-D-V-20HPhe-C-5FW-F-hydroxyVal-dLys(DOTA)-COOH] (Ac-[hLeu]YC[Tle]G[Ala(piperidin-4-yl)][Ala(4-THP)]DV[Phe(2-OH)]C[Trp(5-F)]F[Val(3-OH)][dK](DOTA)-OH; disulfide 3-11) yielded a Kd under setting [2] of 0.001 to 0.01 µM.

For the molecule `CC(C)CC[C@H](NC(=O)COCCNC(=O)CC[C@H](NC(=O)CN1CCN(CC(=O)O)CCN(CC(=O)O)CCN(CC(=O)O)CC1)C(=O)O)C(=O)N[C@@H](Cc1ccc(O)cc1)C(=O)N[C@H]1CSSC[C@@H](C(=O)N[C@@H](Cc2c[nH]c3ccc(F)cc23)C(=O)N[C@@H](Cc2ccccc2)C(=O)N[C@H](C(N)=O)C(C)(C)O)NC(=O)[C@H](Cc2ccc(O)cc2)NC(=O)[C@H](C(C)C)NC(=O)[C@H](CC(=O)O)NC(=O)[C@H](CC2CCOCC2)NC(=O)[C@H](CCCCN)NC(=O)CNC(=O)[C@H](C(C)(C)C)NC1=O` [compound 393, DOTA-gE-AEA-hLeu-Y-C-Tbg-G-K-ThpA-D-V-Y-C-5FW-F-hydroxyVal-CONH2] ({DOTA-γGlu-AEA}-[hLeu]YC[Tle]GK[Ala(4-THP)]DVYC[Trp(5-F)]F[Val(3-OH)]-NH2; disulfide 3-11), the Kd under setting [2] is 0.001 to 0.01 µM.

As for `CC[C@H](C)[C@@H]1NC(=O)[C@@H](NC(=O)[C@H](Cc2ccc(O)cc2)NC(=O)[C@H](CCC(C)C)NC(C)=O)CSSC[C@@H](C(=O)N[C@@H](Cc2c[nH]c3ccc(F)cc23)C(=O)N[C@@H](Cc2ccccc2)C(=O)N2C[C@@H](O)C[C@H]2C(N)=O)NC(=O)[C@H](Cc2ccc(O)cc2)NC(=O)[C@H](C(C)C)NC(=O)[C@H](CC(=O)O)NC(=O)[C@H](Cc2ccncc2)NC(=O)[C@H](CCCCNC(=O)CN2CCN(CC(=O)O)CCN(CC(=O)O)CCN(CC(=O)O)CC2)NC(=O)CNC1=O` [compound 251, Ac-hLeu-Y-C-Ile-G-Lys(DOTA)-4PyA-D-V-Y-C-5FW-F-(cisHyp)-CONH2] (Ac-[hLeu]YCIGK(DOTA)[4Pal]DVYC[Trp(5-F)]F[cisHyp]-NH2; disulfide 3-11), the Kd under setting [1] fell in the range of 0.001 to 0.01 µM.

The molecule `CCCC[C@H](NC(C)=O)C(=O)N[C@@H](Cc1ccc(O)cc1)C(=O)N[C@H]1CSSC[C@@H](C(=O)N[C@@H](Cc2c[nH]c3ccccc23)C(=O)N[C@@H](Cc2ccccc2)C(=O)N[C@H](C(=O)N[C@H](CCCCNC(=O)CN2CCN(CC(=O)O)CCN(CC(=O)O)CCN(CC(=O)O)CC2)C(N)=O)[C@@H](C)O)NC(=O)[C@H](Cc2ccc(O)cc2)NC(=O)[C@H](CC)NC(=O)[C@H](CC(=O)O)NC(=O)[C@H](Cc2ccc(O)cc2)NC(=O)[C@H](CCCCN)NC(=O)CNC(=O)[C@H](C(C)C)NC1=O` [compound 96, Ac-Nle-Y-C-V-G-K-Y-D-Abu-Y-C-W-F-Thr-dLys(DOTA)-CONH2] (Ac-[Nle]YCVGKYD[Abu]YCWFT[dK](DOTA)-NH2; disulfide 3-11) returned a Kd under setting [1] of 0.01 to 0.1 µM.

With `CC(=O)N[C@@H](CCC(C)C)C(=O)N[C@@H](Cc1ccc(O)cc1)C(=O)N[C@H]1CSSC[C@@H](C(=O)N[C@@H](Cc2c[nH]c3ccc(F)cc23)C(=O)N[C@@](C)(Cc2ccccc2)C(=O)N[C@H](C(=O)N[C@H](CCCCNC(=O)CN2CCN(CC(=O)O)CCN(CC(=O)O)CCN(CC(=O)O)CC2)C(N)=O)[C@@H](C)O)NC(=O)[C@H](Cc2ccc(O)cc2)NC(=O)[C@H](C(C)C)NC(=O)[C@H](CC(=O)O)NC(=O)[C@H](Cc2ccc(O)cc2)NC(=O)[C@H](CCCCN)NC(=O)CNC(=O)[C@H](C(C)C)NC1=O` [compound 168, Ac-hLeu-Y-C-V-G-K-Y-D-V-Y-C-5FW-aMePhe-Thr-dLys(DOTA)-CONH2] (Ac-[hLeu]YCVGKYDVYC[Trp(5-F)][αMeF]T[dK](DOTA)-NH2; disulfide 3-11), the equilibrium dissociation constant (Kd) under setting [1] was in the range of 0.1 to 0.3 µM.
